Reference: patent US20260325658A1 (priority 2022, published 2026)
“Also recorded” adds a separate entry of the source.

Key:
[1] = cited from earlier work
[2] = system: patients; details: human, in vivo; cited from earlier work
[3] = in vivo; cited from earlier work
[4] = system: dopamine receptors; details: cited from earlier work
[5] = target: Sigma 2 (Homo sapiens, UniProt Q5BJF2); details: cited from earlier work
[6] = system: Mecp2-null mice; details: mouse, in vivo; cited from earlier work
[7] = system: adult patients; details: human, in vivo; cited from earlier work
[8] = target: Opiate μ (Homo sapiens, UniProt P35372); type: binding
Chain of Opiate μ (P35372 whole entry): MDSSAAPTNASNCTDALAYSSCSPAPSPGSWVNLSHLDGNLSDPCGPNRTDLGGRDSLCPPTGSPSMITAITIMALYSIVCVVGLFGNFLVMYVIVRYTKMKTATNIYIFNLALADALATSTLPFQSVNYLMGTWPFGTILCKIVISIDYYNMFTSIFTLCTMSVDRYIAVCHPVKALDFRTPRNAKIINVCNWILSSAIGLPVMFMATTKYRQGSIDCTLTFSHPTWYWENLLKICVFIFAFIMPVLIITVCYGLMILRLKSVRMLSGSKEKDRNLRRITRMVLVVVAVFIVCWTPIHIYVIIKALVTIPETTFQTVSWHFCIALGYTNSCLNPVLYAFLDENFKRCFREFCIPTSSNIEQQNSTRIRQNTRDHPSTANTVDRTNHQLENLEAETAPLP

[9] = target: D2L human dopamine GPCR (Homo sapiens, UniProt P14416); type: cell-based
Chain of D2L human dopamine GPCR (P14416 whole entry): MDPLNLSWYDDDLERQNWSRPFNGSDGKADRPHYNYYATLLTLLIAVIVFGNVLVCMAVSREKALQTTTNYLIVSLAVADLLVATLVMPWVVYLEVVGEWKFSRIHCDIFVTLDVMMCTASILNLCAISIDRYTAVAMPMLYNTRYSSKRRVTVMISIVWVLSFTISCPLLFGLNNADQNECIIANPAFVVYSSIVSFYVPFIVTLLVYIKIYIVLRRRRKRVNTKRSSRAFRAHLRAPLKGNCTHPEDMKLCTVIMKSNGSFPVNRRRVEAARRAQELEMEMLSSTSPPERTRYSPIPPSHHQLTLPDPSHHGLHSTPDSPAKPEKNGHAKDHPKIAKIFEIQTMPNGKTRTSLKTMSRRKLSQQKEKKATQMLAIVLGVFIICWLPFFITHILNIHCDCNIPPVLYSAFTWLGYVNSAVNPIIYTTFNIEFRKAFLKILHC

[10] = target: human delta (DOP) receptor (Homo sapiens, UniProt P41143); type: cell-based
Chain of human delta (DOP) receptor (P41143 whole entry): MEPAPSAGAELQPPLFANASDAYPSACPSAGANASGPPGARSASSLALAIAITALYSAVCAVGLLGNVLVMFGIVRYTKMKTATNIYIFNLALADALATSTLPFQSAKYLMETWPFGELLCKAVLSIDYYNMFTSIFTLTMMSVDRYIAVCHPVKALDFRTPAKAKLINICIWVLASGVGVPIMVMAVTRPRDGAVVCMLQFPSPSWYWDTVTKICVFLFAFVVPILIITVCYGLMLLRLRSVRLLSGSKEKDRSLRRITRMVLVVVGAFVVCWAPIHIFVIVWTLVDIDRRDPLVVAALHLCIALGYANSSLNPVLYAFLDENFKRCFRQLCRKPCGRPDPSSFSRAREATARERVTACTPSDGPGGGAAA

[11] = system: opioid addiction syndrome; details: in vivo; cited from earlier work

Chain of Sigma 2 (Q5BJF2 whole entry): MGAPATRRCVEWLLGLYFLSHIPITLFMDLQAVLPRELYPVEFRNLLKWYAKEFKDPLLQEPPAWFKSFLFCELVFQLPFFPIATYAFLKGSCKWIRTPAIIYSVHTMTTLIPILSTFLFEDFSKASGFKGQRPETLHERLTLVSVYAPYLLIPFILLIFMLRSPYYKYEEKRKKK

SMILES: NCCc1c[nH]c2ccc(O)cc12 [5HT, 5-hydroxy tryptamine]
- Water Solubility of Free drug [1]: 2500 µg/mL

SMILES: CNC1(c2ccccc2Cl)CCCCC1=O (stereo not drawn) [Ketamine, 2-(2-chlorophenyl)-2-(methylamino)-cyclohexanone]
- patients who develop an emergence phenomenon [2]: More than half the patients
- half-life [3]: approximately 45 minutes
- affinity for / effect on dopamine receptors [4]: not shown any affinity for dopamine 2 receptors; also recorded: do not appear to have a direct effect on dopamine receptors
- concentration at which sigma2 receptors are bound [5]: mM concentrations
- efficacy by start of treatment [6]: Treatment from day 30 was not effective; also recorded: treatment from day 15 showed some efficacy
- improved survival [6]: 50%
- survival after treatment [6]: 50%

SMILES: c1ccc(C2(N3CCCCC3)CCCCC2)cc1 [PCP, 1-(1-phencyclohexyl) piperidine]
- adult patients presenting with the classic toxidrome of PCP intoxication [7]: Over 50%

SMILES: NCCc1c[nH]c2ccccc12 [Tryptamine]
- Water Solubility of Free drug [1]: 1340 µg/mL

SMILES: NC1(c2ccccc2Cl)CCCCC1=O (racemic) [NorKetamine, (R,S)-Norketamine]
- Water Solubility of Free drug [1]: 178 µg/mL
- affinity for / effect on dopamine receptors [4]: do not appear to have a direct effect on dopamine receptors
- Opiate μ [8]: Not active
- binding to Opioid u receptors [8]: does not bind Opioid u receptors
- DRD2L Agonist [9]: Not active
- ability to bind dopamine 2 receptors [9]: does not appear to bind Dopamine 2 receptors
- Opiate delta1R (antagonist) [10]: Not active

SMILES: CC[C@H]1C[C@H]2C[C@H]3c4[nH]c5ccc(OC)cc5c4CCN(C2)[C@@H]13 [Ibogaine]
- drug craving and depressive symptoms [11]: decreases drug craving and improves depressive symptoms
